Columns and labels:
[1] = tested on: U937 cells; test: U937 cell activity assay: TNFα/QVD-OPh-induced programmed cell necrosis (necroptosis); format: cell-based, human; settings: QVD-OPh 25 μM + TNF-α 100 ng/mL, CellTiter Glo
Experimental: 1.2 Instrument and Materials
Envision plate reader (Perkin Elmer, Cat #2104-0010)
1.3 Formulation of Reagents • (1) 1×DPSB: To 100 mL of 10×DPBS was added 900 mL of deionized water. • (2) 1640 complete medium: To 89 mL of RPMI-1640 medium were added 10 mL of FBS and 1 mL of penicillin/streptomycin 2. Assay Steps • 1. U937 cells were centrifuged, and then the medium was discarded. The cells were resuspended in 1640 complete medium and counted. The cell concentration was adjusted to 5×10^5 cells/mL for use, and the cells were arranged according to compounds to be assayed. • 2. To the prepared resuspension of U937 cells were added QVD-OPh at a final concentration of 25 μM and TNF-α at a final concentration of 100 ng/mL, and then the mixture was mixed gently. • 3. To a 384-well plate was added 30 μL/well of U937 cells containing 25 μM of QVD-OPh and TNF-α at a final concentration of 100 ng/mL, and blank control wells without QVD-OPh and TNF-α were set up. • 4. To the dosing group […] added 10 μL of the assay compound at 4 times the preset concentration, and to the blank control well was added DMSO at the corresponding concentration. • 5. The 384-well plate was placed in a 37° C. and 5% CO2 cell incubator for 24 hours. • 6. After 24 hours, the 384-well plate was taken out and equilibrated at room temperature for 20 minutes. • 7. 40 μL of CTG was added to each well, and then the plate was shaken on a shaker in the dark for 2 minutes. • 8. The plate was incubated at room temperature in the dark for 10 minutes, and then read using an Envision plate reader.

[2] = tested on: L929 cells; test: In vitro activity assay of mouse RIP1: L929 cell TNFα/QVD-OPh-induced necroptosis; format: cell-based; settings: TNF-α 50 ng/mL + Q-VD 50 μM, 24 h, CellTiter Glo
Experimental: Assay Example 2: In Vitro Activity Assay of Mouse RIP1
L929 (purchased from ATCC, Item No.: CCL-1)
Instrument Microplate reader (Perkin Elmer, Envision) Formulation of Reagents L929 cell complete medium: EMEM+10% horse serum (volume ratio)+1% double antibiotics (volume ratio) Assay Step • 1. The cultured L929 cells were digested with trypsin, centrifuged, resuspended in complete culture medium, and then counted. The cell concentration was then diluted to 1×10^5/mL with complete culture medium. • 2. The cell suspension was added to a 96-well plate at 100 μL per well and incubated at 37° C. and 5% CO2 for 24 h. • 3. Different concentrations of assay compounds were added to each well, and dimethyl sulfoxide was added to the control group. The plate was incubated at 37° C. and 5% CO2 for 1 h. • 4. To each well were added TNF-α at a final concentration of 50 ng/mL and Q-VD at a final concentration of 50 μM, and the plate was incubated at 37° C. and 5% CO2 for 24 h. • 5. To each well was added 50 μL of CellTiter Glo […], and the plate was shaken in the dark for 10 min. • 6. The plate was read on the microplate reader.

[3] = Pharmacokinetic parameters in dogs; format: in vivo; settings: beagle, plasma, dog
Experimental: Four healthy adult beagle dogs were selected and randomly divided into two groups. One group was given the assay compound by intravenous injection, and the other group was given the assay compound by gavage. Plasma samples were collected respectively from animals in the intravenous group and gavage group at 0.083, 0.25, 0.5, 1.0, 2.0, 4.0, 6.0, 8.0, 24 hours after administration. The blood concentration was determined by LC-MS/MS method. Relevant pharmacokinetic parameters were calculated by WinNonlin™ Version 6.3 (Pharsight. Mountain View, CA) pharmacokinetic software using non-compartmental model and linear logarithmic trapezoidal method. AUC0-last represents the area under the plasma concentration-time curve from zero time point to the last detectable concentration time point; Cmax represents the peak concentration; Tmax represents the time to reach the peak; T1/2 represents the half-life; CL represents the clearance rate; Vdss represents apparent volume of distribution; p.o. represents per os; i.v. represents intravenous injection; and F % represents oral bioavailability.

In the case of `CN1C(=S)[C@@H](NC(=O)c2nc3n(n2)CCO[C@H]3c2ccccc2)COc2cccnc21` (single isomer, unassigned) [WX028], the IC50 ([1]; Homo sapiens, U-937, 24 h) is reported as 4.7 nM and the IC50 [2] is reported as 0.065 µM.
Work on `CN1C(=S)[C@@H](NC(=O)c2nc(Cc3ccccc3)n[nH]2)COc2ccccc21` [WX001] yielded an IC50 ([1]; Homo sapiens, U-937, 24 h) of 0.5 nM and an IC50 [2] of 1.16 µM.
For `CN1C(=S)[C@@H](NC(=O)c2nc(Cc3cccc(C#N)c3)n[nH]2)COc2ccccc21` [WX002], the IC50 ([1]; Homo sapiens, U-937, 24 h) was 1.8 nM.
`CN1C(=S)[C@@H](NC(=O)c2nc(Cc3ccccc3)n[nH]2)COc2cccnc21` [WX003] gave an IC50 ([1]; Homo sapiens, U-937, 24 h) of 0.5 nM and an IC50 [2] of 1.21 µM.
With `CN1C(=S)[C@@H](NC(=O)c2nc(Cc3cccc(C#N)c3)n[nH]2)COc2cccnc21` [WX004] the IC50 ([1]; Homo sapiens, U-937, 24 h) was 0.3 nM.
In the case of `[2H]C([2H])([2H])N1C(=S)[C@@H](NC(=O)c2n[nH]c(Cc3ccccc3)n2)COc2cccnc21` [WX005], the IC50 ([1]; Homo sapiens, U-937, 24 h) is reported as 2 nM and the IC50 [2] is reported as 1.31 µM.
`CN1C(=S)[C@@H](NC(=O)c2cn(Cc3ccccc3)cn2)COc2cccnc21` [WX006] showed an IC50 ([1]; Homo sapiens, U-937, 24 h) of 9 nM.
`CN1C(=S)[C@@H](NC(=O)c2cc(Cc3ccccc3)on2)COc2cccnc21` [WX007] showed an IC50 ([1]; Homo sapiens, U-937, 24 h) of 70 nM.
In the case of `CN1C(=S)[C@@H](NC(=O)c2nc(Cl)n(Cc3cccc(C#N)c3)n2)COc2cccnc21` [WX008], the IC50 ([1]; Homo sapiens, U-937, 24 h) is reported as 8.1 nM and the IC50 [2] is reported as 0.047 µM.
In the case of `CN1C(=S)[C@@H](NC(=O)c2cn(Cc3ccccc3)nn2)COc2cccnc21` [WX010], the IC50 ([1]; Homo sapiens, U-937, 24 h) is reported as 47 nM.
`CN1C(=S)[C@@H](NC(=O)c2nc(Cl)n(Cc3ccccc3)n2)COc2cccnc21` [WX011] gave an IC50 ([1]; Homo sapiens, U-937, 24 h) of 1.7 nM and an IC50 [2] of 0.011 µM.
In the case of `CN1C(=S)[C@@H](NC(=O)c2nnc(Cc3ccccc3)o2)COc2cccnc21` [WX012], the IC50 ([1]; Homo sapiens, U-937, 24 h) is reported as 12.1 nM.
With `CN1C(=S)[C@@H](NC(=O)c2nc3n(n2)[C@H](c2ccccc2)CC3)COc2cccnc21` [WX013] the IC50 ([1]; Homo sapiens, U-937, 24 h) was 1.8 nM, the AUC(0-t) ([3]; 1 mg/kg, iv = 1 mpk) was 7.42 µM·h and the clearance ([3]; 1 mg/kg, iv = 1 mpk) was 5.18 mL/min/kg. It also gave a half-life ([3]; 1 mg/kg, iv = 1 mpk) of 4.89 h, a Vd ([3]; 1 mg/kg, iv = 1 mpk, read-out: Vdss) of 2.02 L/kg and an AUC(0-t) ([3]; 5 mg/kg, po = 5 mpk) of 27.7 µM·h. The bioavailability ([3]; po = 5 mpk vs iv = 1 mpk) was 80.1% and the IC50 [2] was 0.014 µM.
`O=C(N[C@H]1CCc2cc(F)cc(F)c2NC1=S)c1nc(Cc2ccccc2)n[nH]1` [WX014] gave an IC50 ([1]; Homo sapiens, U-937, 24 h) of 3.7 nM.
Compound `CN1C(=S)[C@@H](NC(=O)c2nnn(Cc3ccccc3)n2)COc2cccnc21` [WX015] has an IC50 ([1]; 24 hours) of 5.1 nM.
`Cc1nc(C(=O)N[C@H]2COc3cccnc3N(C)C2=S)nn1Cc1ccccc1` [WX016] showed an IC50 ([1]; Homo sapiens, U-937, 24 h) of 9.8 nM.
With `CN1C(=S)[C@@H](NC(=O)c2ncn(CC34CC(F)(C3)C4)n2)COc2cccnc21` [WX017] the IC50 ([1]; Homo sapiens, U-937, 24 h) was 59 nM.
Work on `CN1C(=S)[C@@H](NC(=O)c2nnn(Cc3ccccc3)n2)COc2cccnc21` [WX018] yielded an IC50 ([1]; 24 hours) of 1.3 nM.
Work on `CN1C(=S)[C@@H](NC(=O)c2ncn(Cc3ccccc3F)n2)COc2cccnc21` [WX019] yielded an IC50 ([1]; Homo sapiens, U-937, 24 h) of 0.6 nM and an IC50 [2] of 0.051 µM.
For `CN1C(=S)[C@@H](NC(=O)c2ncn(Cc3c(F)cccc3F)n2)COc2cccnc21` [WX020], the IC50 ([1]; Homo sapiens, U-937, 24 h) was 0.6 nM and the IC50 [2] was 0.029 µM.
In the case of `CN1C(=S)[C@@H](NC(=O)c2ncn(Cc3ccccc3)n2)COc2cc(Cl)cnc21` [WX021], the IC50 ([1]; Homo sapiens, U-937, 24 h) is reported as 13 nM and the IC50 [2] is reported as 0.445 µM.
`CN1C(=S)[C@@H](NC(=O)c2ncn(Cc3ccccc3F)n2)COc2cc(Cl)cnc21` [WX022] gave an IC50 ([1]; Homo sapiens, U-937, 24 h) of 20 nM.
Compound `CN1C(=S)[C@@H](NC(=O)c2ncn(Cc3ccccc3)n2)COc2cc(Br)cnc21` [WX023] has an IC50 ([1]; Homo sapiens, U-937, 24 h) of 29 nM.
Compound `CN1C(=S)[C@@H](NC(=O)c2ncn(Cc3ccccc3)n2)COc2ccc(C(=O)O)cc21` [WX024] has an IC50 ([1]; Homo sapiens, U-937, 24 h) of 43 nM.
With `CN1C(=S)[C@@H](NC(=O)c2ncn(Cc3ccccc3)n2)COc2ccncc21` [WX025] the IC50 ([1]; Homo sapiens, U-937, 24 h) was 12 nM.
Work on `CN1C(=S)[C@@H](NC(=O)c2cc(Oc3ccccc3)ccn2)COc2cccnc21` [WX026] yielded an IC50 ([1]; Homo sapiens, U-937, 24 h) of 5 nM.
For `COc1ccccc1Cn1cnc(C(=O)N[C@H]2COc3cccnc3N(C)C2=S)n1` [WX027], the IC50 ([1]; Homo sapiens, U-937, 24 h) was 20 nM.
`CN1C(=S)[C@@H](NC(=O)c2ncn(Cc3cccc(F)c3)n2)COc2cccnc21` [WX029] gave an IC50 ([1]; Homo sapiens, U-937, 24 h) of 2.2 nM and an IC50 [2] of 0.184 µM.
Work on `COc1ccc(Cn2cnc(C(=O)N[C@H]3COc4cccnc4N(C)C3=S)n2)cc1` [WX030] yielded an IC50 ([1]; Homo sapiens, U-937, 24 h) of 15.6 nM.
`CN1C(=S)[C@@H](NC(=O)c2ncn(Cc3ccc(F)cc3)n2)COc2cccnc21` [WX031] showed an IC50 ([1]; Homo sapiens, U-937, 24 h) of 2.4 nM and an IC50 [2] of 0.174 µM.
In the case of `CN1C(=S)[C@@H](NC(=O)c2ncn(Cc3cccc(C#N)c3)n2)COc2cccnc21` [WX032], the IC50 ([1]; Homo sapiens, U-937, 24 h) is reported as 5.7 nM and the IC50 [2] is reported as 0.255 µM.
With `Cc1cccc(Cn2cnc(C(=O)N[C@H]3COc4cccnc4N(C)C3=S)n2)c1` [WX033] the IC50 ([1]; Homo sapiens, U-937, 24 h) was 7.6 nM.
`CN1C(=S)[C@@H](NC(=O)c2ncn(Cc3cc(F)cc(F)c3)n2)COc2cccnc21` [WX034] gave an IC50 ([1]; Homo sapiens, U-937, 24 h) of 3.7 nM.
Work on `Cc1ccccc1Cn1cnc(C(=O)N[C@H]2COc3cccnc3N(C)C2=S)n1` [WX035] yielded an IC50 ([1]; Homo sapiens, U-937, 24 h) of 4.9 nM.
`CN1C(=S)[C@@H](NC(=O)c2ncn(Cc3cccc(Cl)c3)n2)COc2cccnc21` [WX036] gave an IC50 ([1]; Homo sapiens, U-937, 24 h) of 6.4 nM.
`CN1C(=S)[C@@H](NC(=O)c2ncn(Cc3cccc(Br)c3)n2)COc2cccnc21` [WX037] gave an IC50 ([1]; Homo sapiens, U-937, 24 h) of 24 nM.
In the case of `CN1C(=S)[C@@H](NC(=O)c2ncn(Cc3ccc(OC(F)(F)F)cc3)n2)COc2cccnc21` [WX038], the IC50 ([1]; Homo sapiens, U-937, 24 h) is reported as 238 nM.
For `Cc1ccc(Cn2cnc(C(=O)N[C@H]3COc4cccnc4N(C)C3=S)n2)cc1` [WX039], the IC50 ([1]; Homo sapiens, U-937, 24 h) was 3.4 nM and the IC50 [2] was 0.064 µM.
Work on `CN1C(=S)[C@@H](NC(=O)c2ncn(Cc3ccccc3)n2)COc2ccc(C(N)=O)cc21` [WX040] yielded an IC50 ([1]; Homo sapiens, U-937, 24 h) of 4.8 nM.
Work on `CN1C(=S)[C@@H](NC(=O)c2ncn(Cc3ccc(C(F)(F)F)cc3)n2)COc2cccnc21` [WX041] yielded an IC50 ([1]; Homo sapiens, U-937, 24 h) of 86.5 nM.
`COc1cccc(Cn2cnc(C(=O)N[C@H]3COc4cccnc4N(C)C3=S)n2)c1` [WX042] showed an IC50 ([1]; Homo sapiens, U-937, 24 h) of 24.8 nM.

Reference: patent US12351587B2, “Bicyclic compound as RIP-1 kinase inhibitor and application thereof” (MEDSHINE DISCOVERY INC., priority 2019, dated 2025)
